Data set [1] deals with Staphylococcus aureus. As to the kind of experiment: Antibacterial activity against Staphylococcus aureus ATCC 25923 assessed as growth inhibition at 50 mg/mL after 24 hr by agar well diffusion method. The note with it: ATCC 25923, 24 h, read-out: IZ. A general note: A growth-free zone around the sample is the usual read-out of agar diffusion tests.
The subject of data set [2] is Chrysosporium keratinophilum. As to the kind of experiment: Antifungal activity against Chrysosporium keratinophilum assessed as growth inhibition after 72 hr by serial broth dilution method. The format is functional. A general note: Dilution methods test growth across graded concentrations, often in twofold steps.
The subject of data set [3] is Pseudomonas aeruginosa. As to the kind of experiment: Antibacterial activity against Pseudomonas aeruginosa ATCC 27853 assessed as growth inhibition after 24 hr by serial broth dilution method. Particulars: ATCC 27853, 24 h; call rule not given here. The format is functional.
For data set [4], the system named is Candida albicans. Briefly: Antifungal activity against Candida albicans MTCC227 assessed as growth inhibition at 50 mg/mL after 72 hr by agar well diffusion method. The note with it: MTCC227, 72 h, read-out: IZ.
The subject of data set [5] is Radical scavenging activity. Briefly: Antioxidant activity assessed as DPPH free radical scavenging activity at 100 ug/mL after 10 min UV-Vis spectrophotometric analysis relative to control. The format is functional. (In general: The DPPH test is a chemical assay of radical scavenging.)
The test system of data set [6] is Escherichia coli. As to the kind of experiment: Antibacterial activity against Escherichia coli ATCC 25922 assessed as growth inhibition at 50 mg/mL after 24 hr by agar well diffusion method. The note with it: ATCC 25922, 24 h, read-out: IZ.
Data set [7] concerns Chrysosporium keratinophilum. Briefly: Antifungal activity against Chrysosporium keratinophilum assessed as growth inhibition at 50 mg/mL after 72 hr by agar well diffusion method. The format is functional. The note with it: read-out: IZ.
Data set [8] deals with Staphylococcus aureus. Briefly: Antibacterial activity against Staphylococcus aureus ATCC 25923 assessed as growth inhibition after 24 hr by serial broth dilution method. The note with it: ATCC 25923, 24 h.
In data set [9] the test system is Aspergillus flavus. As to the kind of experiment: Antifungal activity against Aspergillus flavus assessed as growth inhibition after 72 hr by serial broth dilution method. The format is functional.
Data set [10] in a line: Metal chelating activity of the compound assessed as ferrous ion complex formation at 0.5 to 2 mg/mL after 10 min by spectrophotometric analysis.
Data set [11] deals with Escherichia coli. Briefly: Antibacterial activity against Escherichia coli ATCC 25922 assessed as growth inhibition after 24 hr by serial broth dilution method. Particulars: ATCC 25922, 24 h.
For data set [12], the system named is Pseudomonas aeruginosa. Briefly: Antibacterial activity against Pseudomonas aeruginosa ATCC 27853 assessed as growth inhibition at 50 mg/mL after 24 hr by agar well diffusion method. The format is functional. Particulars: ATCC 27853, 24 h, read-out: IZ.
Data set [13] has as its system Aspergillus flavus. Briefly: Antifungal activity against Aspergillus flavus assessed as growth inhibition at 50 mg/mL after 72 hr by agar well diffusion method. The format is functional. The note with it: read-out: IZ.
Data set [14] relates to Candida albicans. As to the kind of experiment: Antifungal activity against Candida albicans MTCC227 assessed as growth inhibition after 72 hr by serial broth dilution method. The note with it: MTCC227, 72 h.
Data set [15] in a line: Metal chelating activity of the compound assessed as ferrous ion complex formation at 0.5 to 2 mg/mL after 10 min by spectrophotometric analysis relative to EDTA.
For data set [16], the system named is Chrysosporium keratinophilum. Briefly: Antifungal activity against Chrysosporium keratinophilum assessed as growth inhibition at 0.5 to 1 mg/mL after 72 hr by agar well diffusion method. It is filed as functional.
Data set [17] deals with Aspergillus flavus. Briefly: Antifungal activity against Aspergillus flavus assessed as growth inhibition at 0.5 to 1 mg/mL after 72 hr by agar well diffusion method. The format is functional.
Data set [18] deals with Candida albicans. Briefly: Antifungal activity against Candida albicans NCPF 3179 assessed as growth inhibition at 0.5 to 1 mg/mL after 72 hr by agar well diffusion method. It is filed as functional.
Data set [19] concerns Staphylococcus aureus. Briefly: Antibacterial activity against Staphylococcus aureus ATCC 25923 assessed as growth inhibition at 0.5 to 1 mg/mL after 24 hr by agar well diffusion method.
In data set [20] the test system is Escherichia coli. As to the kind of experiment: Antibacterial activity against Escherichia coli ATCC 25922 assessed as growth inhibition at 0.5 to 1 mg/mL after 24 hr by agar well diffusion method.
For data set [21], the system named is Pseudomonas aeruginosa. Briefly: Antibacterial activity against Pseudomonas aeruginosa ATCC 27853 assessed as growth inhibition at 0.5 to 1 mg/mL after 24 hr by agar well diffusion method. It is filed as functional.

Broadly, the MIC is the lowest concentration that inhibits growth of the organism.

SMILES strings stand for the structures. Converted amounts (≈) assume the structure as drawn.

For `O=C(O)c1ccc(NC(CC(=O)c2cc3ccccc3oc2=O)c2ccccc2)cc1` (stereo not drawn), the zone of inhibition at 50000 µg/mL in the data set on Staphylococcus aureus [1] was found to be 11 mm; in the data set on Candida albicans [4], 17 mm; in the data set with Escherichia coli [6], 10 mm; in [7] it was 13 mm; with Pseudomonas aeruginosa [12] it was 12 mm; with Aspergillus flavus [13], 11 mm. The MIC in data set [2] was 200 µg/mL (≈ 484 µM); in the data set with Pseudomonas aeruginosa [3], 150 µg/mL (≈ 363 µM); in the data set on Staphylococcus aureus [8], 100 µg/mL (≈ 242 µM); in the data set with Aspergillus flavus [9] it was 250 µg/mL (≈ 605 µM); in the data set on Escherichia coli [11], 50 µg/mL (≈ 121 µM); with Candida albicans [14], 150 µg/mL (≈ 363 µM). Further, the Activity in [5] is 64.6%; in data set [10], 64.3%.

With `O=C(O)c1ccc(NC(CC(=O)c2cc3ccccc3o2)c2ccccc2)cc1` (stereo not drawn), the zone of inhibition at 50000 µg/mL with Staphylococcus aureus [1] worked out at 3 mm; with Candida albicans [4], 2 mm; in the data set with Escherichia coli [6] it was 3 mm; in [7], 2 mm; with Pseudomonas aeruginosa [12], 3 mm; in the data set with Aspergillus flavus [13], 3 mm. Also, the minimal inhibitory concentration (MIC) in [2] was 500 µg/mL (≈ 1300 µM); with Pseudomonas aeruginosa [3], 500 µg/mL (≈ 1300 µM); with Staphylococcus aureus [8] it was 450 µg/mL (≈ 1170 µM); in the data set on Aspergillus flavus [9] it was 500 µg/mL (≈ 1300 µM); with Escherichia coli [11], 500 µg/mL (≈ 1300 µM); in the data set on Candida albicans [14], 400 µg/mL (≈ 1040 µM). Also, the Activity in data set [5] came out at 52.2%; in data set [10] it was 69.6%.

On to `O=C(O)c1ccc(NC(CC(=O)c2cc3ccccc3o2)c2ccc(F)cc2)cc1` (stereo not drawn), for which the zone of inhibition at 50000 µg/mL was 6 mm in the data set on Staphylococcus aureus [1]; 18 mm with Candida albicans [4]; 5 mm in the data set with Escherichia coli [6]; 12 mm in [7]; 9 mm with Pseudomonas aeruginosa [12]; 9 mm in the data set with Aspergillus flavus [13]. The minimal inhibitory concentration (MIC) in data set [2] is 150 µg/mL (≈ 372 µM); with Pseudomonas aeruginosa [3] it was 140 µg/mL (≈ 347 µM); with Staphylococcus aureus [8], 140 µg/mL (≈ 347 µM); in the data set on Aspergillus flavus [9], 130 µg/mL (≈ 322 µM); with Escherichia coli [11] it was 300 µg/mL (≈ 744 µM); with Candida albicans [14] it was 100 µg/mL (≈ 248 µM). In addition, the Activity is 36.2% in data set [5] and “Active” in data set [15].

Consider `CN(C)c1ccc(C(CC(=O)c2cc3ccccc3o2)Nc2ccc(C(=O)O)cc2)cc1` (stereo not drawn), for which the zone of inhibition at 50000 µg/mL in the data set with Staphylococcus aureus [1] was determined as 11 mm; in the data set on Candida albicans [4], 19 mm; in the data set on Escherichia coli [6], 13 mm; in data set [7], 12 mm; in the data set with Pseudomonas aeruginosa [12], 10 mm; with Aspergillus flavus [13], 10 mm. In addition, the minimum inhibitory concentration (MIC) in data set [2] came to 40 µg/mL (≈ 93.4 µM); in the data set on Pseudomonas aeruginosa [3], 40 µg/mL (≈ 93.4 µM); with Staphylococcus aureus [8], 60 µg/mL (≈ 140 µM); in the data set on Aspergillus flavus [9], 40 µg/mL (≈ 93.4 µM); with Escherichia coli [11], 50 µg/mL (≈ 117 µM); in the data set on Candida albicans [14], 50 µg/mL (≈ 117 µM). The Activity in [5] is 67.2%; in [15], “Active”.

With `OC(Cn1cncn1)(Cn1cncn1)c1ccc(F)cc1F` [FLUCONAZOLE], the entries for the “inhibition zone (IZ)” value (in [16]; with Aspergillus flavus [17]; with Candida albicans [18]) were 14 mm, 10 mm and 20 mm, respectively. In addition, the minimal inhibitory concentration (MIC) in [16] (Chrysosporium keratinophilum, 72 h) was 40 µg/mL (≈ 131 µM); in the data set with Aspergillus flavus [17] (Aspergillus flavus, 72 h) it was 40 µg/mL (≈ 131 µM); with Candida albicans [18] (Candida albicans, NCPF 3179, 72 h) it was 40 µg/mL (≈ 131 µM).

With `CN[C@@H]1[C@H](O[C@H]2[C@H](O[C@H]3[C@H](O)[C@@H](O)[C@H](N=C(N)N)[C@@H](O)[C@@H]3N=C(N)N)O[C@@H](C)[C@]2(O)C=O)O[C@@H](CO)[C@H](O)[C@H]1O` [STREPTOMYCIN], the “inhibition zone (IZ)” value in the data set with Staphylococcus aureus [19] is reported as 12 mm; in the data set on Escherichia coli [20], 14 mm; in the data set with Pseudomonas aeruginosa [21], 13 mm. The MIC was determined as 30 µg/mL (≈ 51.6 µM) in the data set with Staphylococcus aureus [19] (Staphylococcus aureus, ATCC 25923, 24 h); 30 µg/mL (≈ 51.6 µM) in the data set with Escherichia coli [20] (Escherichia coli, ATCC 25922, 24 h); 30 µg/mL (≈ 51.6 µM) in the data set with Pseudomonas aeruginosa [21] (Pseudomonas aeruginosa, ATCC 27853, 24 h).

Values taken from ChEMBL document CHEMBL3045073, “Synthesis of -amino carbonyl derivatives of coumarin and benzofuran and evaluation of their biological activity” (Med Chem Res, 2013).
